Tests used:
AMPK = assay: Immunoblots of AMPK T172 and ACC S79 phosphorylation, KP4 cells; type: cell-based, human; conditions: 15 µM, 24 h
Method: (§1) Figure 3 Effects of biguanides on cell proliferation and viability in pancreatic cancer cells. […]. […] | decimal sign comma or point
. […]. Experimental. Cells were rinsed twice with 1X PBS, and lysed in Laemmli 2x (4% SDS, 20% glycerol, 120 mM Tris-HCl pH 6.8). Laemmli extracts were boiled for 5 minutes, then the concentration was assessed with NanoDrop (ThermoFisher) and equalized between samples. Lysates were supplemented with 10% beta-mercaptoethanol and 0.05% bromophenol blue and boiled again for 5 minutes. 25 µg of extracts were loaded on SDS-PAGE then transferred on nitrocellulose membranes for 1h30 at 130V. Membranes were rinsed in 1XPBS1-0.05% Tween-20 then blocked for 1h in 1XPBS, 0.05%-Tween-20 5% Milk. Membranes were rinsed again 3 x 10 min in PBS-Tween, then incubated overnight at 4°C with the following primary antibodies in 1XPBS-0.1%BSA, 0.02%Sodium azide: anti-phospho-AMPK T172 (1:1000, Rabbit, 2531S, Cell Signaling), anti-AMPKalpha (1:1000, Rabbit, 2532, Cell Signaling), anti-phospho-ACC S79 (1:1000, Rabbit Polyclonal, 3661S, Cell Signaling), or incubated for 1h at RT with anti-beta-Actin (1:2000, Mouse, 3700, Cell Signaling). […]

red blood cells = assay: Hemolytic activity of PEB-biguanidium salts; type: cell-based; conditions: red blood cells 2% v/v in PBS, 1 h at 37 °C
Method: The toxicity of PEB-Biguanidiums salts was estimated through their hemolytic activity by incubating red blood cells (RBC) with the compounds for 1 h (See Supplementary Table S13 and Supplementary Fig. S29).
Experimental. Red blood cells in Alsever’s solution were centrifuged for 10 min at 300g, washed 3 times with PBS buffer, and resuspended in PBS at 2% v/v. To each well of a 96-well plate, 195 µL of red blood cell solution and 5 µL of biguanidium salt in DMSO were added, and the plate was incubated with light agitation for 1 h at 37 °C. The plate was then centrifuged for 10 min at 300g, and 50 µL of the supernatant solution of each well was transferred to another plate. Absorbance was measured at λ = 405 nm. Each measurement was performed in triplicate in three different experiments.

[1] = Solubility in methanol and DMSO; type: physicochemical; conditions: even at high concentrations
HPNE-hTERT cells = assay: Cell death assay (trypan blue), HPNE-hTERT cells; type: cell-based, human; conditions: 15 µM for 24 h
Source text: as §1
(§2) Experimental. […] At the end of the treatments, adherent cells were recovered by trypsinization, along with floating cells recovered by centrifugation of the culture medium. Floating and adherent cells were pooled together. The faction of dead cells was quantified by counting the proportion of trypan blue-positive (dead cells) and the proportion of living cells (trypan blue-negative).

[2] = tested on: mitochondria of KP4 cells expressing pMXs-3XHA-EGFP-OMP25; assay: Mitochondrial permeation and accumulation (anti-HA IP, MALDI-MS); type: cell-based, human; conditions: 15 µM, 3 h
Method: Figure 2 (A) Partition of compounds in an U-tube experiment. Concentration of biguanide on the trans-side of the U-tube at 48 h and 72 h at 25 °C, after addition of 250 µM of biguanide on the cis-side. (B) Variation in the internal pH of HPTS-containing EYPC liposomes. Intravesicular solution: 1 mM HPTS, 10 mM HEPES, and 100 mM NaCl, adjusted to pH = 7.4, and extravesicular solution: 10 mM HEPES and 100 mM NaCl, adjusted to pH = 7.4. Biguanidiums were injected after 50 s at 5 mM (50 mol% relative to the 10 mM EYPC concentration), a NaOH pulse was induced at 300 s, and the liposomes were lysed with Triton-X at 550 s. Each curve is the average of three independent measurements. (C) Fluorescence of safranin O in the EYPC liposomes. Biguanidium salts were injected at 5 mM (50 mol% relative to the 10 mM EYPC concentration) at 50 s. Each curve is the average of three independent measurements. […] Mitochondrial isolation was performed according to the previously reported protocol.

KP4 tumor sections = assay: KI67 and cleaved caspase 3 staining of tumor sections from treated mice; type: in vivo, nude mice; conditions: 50 mg/kg, tumor sections after treatment
Source text: (B) Body weight of mice seven days after treatment. […] Representative images shown. Scale bar = 100 µm.
To assess the mechanism of the antitumor activity, we stained tumor sections obtained from animals after the treatment protocol for proliferation marker KI67 and apoptosis marker cleaved caspase 3, and quantified the data according to the scoring key in Fig. 5C. […] However, there were no significant differences in staining for cleaved caspase 3 […].

KP4 cells = assay: Cell death assay (trypan blue), KP4 cells; type: cell-based, human; conditions: 15 µM for 24 h
Source text: as §2

In the case of N=C(N)NC(=N)NCc1ccc(C#Cc2ccccc2)cc1 [1b, 4-(phenylethynyl)benzylbiguanide], the “AMPK activation (phosphorylation of AMPK T172 and ACC)” value (AMPK) is reported as “induced AMPK activation”, the “HC 10% (µM)” value (red blood cells) is reported as > 227 µM and the “HC 10% (µg/ml)” value (red blood cells) is reported as > 100 µg/mL. For the same compound, the “Solubility in methanol and DMSO” value [1] was “good methanol and DMSO solubility even at high concentrations”, the “Effect on the fraction of dead HPNE cells” value (HPNE-hTERT cells) was “did not increase the fraction of dead cells” and the Mitochondrial penetration [2] was “able to efficiently penetrate mitochondria”. The “KI67 staining in tumors” value (KP4 tumor sections) was “reduced KI67 staining in tumors” and the “Increase of the fraction of dead KP4 cells” value (KP4 cells) was ~ 20%.

— article PMC8110578, “Phenylethynylbenzyl-modified biguanides inhibit pancreatic cancer tumor growth” (Scientific Reports, 2021)
